In experiment [1] the target is T1, P2X purinoceptor 1 (Homo sapiens) (UniProt P51575).
T1 sequence (whole entry): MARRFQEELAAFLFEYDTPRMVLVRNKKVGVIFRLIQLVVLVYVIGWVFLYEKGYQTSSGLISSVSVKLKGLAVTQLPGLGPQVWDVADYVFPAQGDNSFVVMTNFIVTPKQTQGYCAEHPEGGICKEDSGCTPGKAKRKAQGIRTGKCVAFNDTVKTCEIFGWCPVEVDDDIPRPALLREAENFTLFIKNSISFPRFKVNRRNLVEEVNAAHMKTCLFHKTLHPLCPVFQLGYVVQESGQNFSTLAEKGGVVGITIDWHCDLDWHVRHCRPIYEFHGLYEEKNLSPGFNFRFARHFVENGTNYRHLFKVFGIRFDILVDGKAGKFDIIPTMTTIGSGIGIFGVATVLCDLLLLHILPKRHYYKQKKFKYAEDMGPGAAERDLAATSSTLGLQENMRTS
Nature of the experiment: Antagonist activity P2X1 receptor in human platelets assessed as inhibition of ADP-induced platelet aggregation pre-incubated for 30 mins before ADP stimulation by aggregometry relative to control. In kind it is cell-based.

In experiment [2] the target is T1, P2X purinoceptor 1 (Homo sapiens). Nature of the experiment: Antagonist activity P2X1 receptor in Apyrase pre-treated human platelets assessed as inhibition of collagen-induced platelet aggregation pre-incubated for 30 mins before collagen stimulation by aggregometry relative to control. In kind it is cell-based.
Experiment [3] has as its target T2, P2X purinoceptor 3 (Homo sapiens) (UniProt P56373).
T2 sequence (whole entry): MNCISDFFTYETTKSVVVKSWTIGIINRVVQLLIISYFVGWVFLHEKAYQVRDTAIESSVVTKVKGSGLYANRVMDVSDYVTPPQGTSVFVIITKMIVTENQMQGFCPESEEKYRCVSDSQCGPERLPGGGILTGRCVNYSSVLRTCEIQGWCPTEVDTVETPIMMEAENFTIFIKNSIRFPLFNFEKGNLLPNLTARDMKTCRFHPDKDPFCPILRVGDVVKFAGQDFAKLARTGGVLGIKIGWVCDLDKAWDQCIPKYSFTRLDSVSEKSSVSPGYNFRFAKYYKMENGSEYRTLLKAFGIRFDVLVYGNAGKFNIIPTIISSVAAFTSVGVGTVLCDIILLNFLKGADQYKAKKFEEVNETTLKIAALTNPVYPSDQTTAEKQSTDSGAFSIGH
Nature of the experiment: Antagonist activity at human P2X3 receptor expressed in human 1321N1 cells assessed as inhibition of ATP-induced cytosolic calcium influx at 10 uM preincubated for 30 mins followed by ATP addition by Fluo-4 AM dye-based fluorescence assay relative to control. In kind it is cell-based.

The target of experiment [4] is T1, P2X purinoceptor 1 (Homo sapiens). Kind of experiment: Antagonist activity at non-desensitizing human P2X1 receptor ( P2X2/P2X1 chimera) expressed in human 1321N1 cells assessed as inhibition of ATP-induced calcium influx at 10 uM pre-incubated for 30 mins before ATP stimulation by FLIPR assay relative to control. In kind it is cell-based.
Experiment [5] addresses T3, P2X purinoceptor 2 (Homo sapiens) (UniProt Q9UBL9).
T3 sequence (whole entry): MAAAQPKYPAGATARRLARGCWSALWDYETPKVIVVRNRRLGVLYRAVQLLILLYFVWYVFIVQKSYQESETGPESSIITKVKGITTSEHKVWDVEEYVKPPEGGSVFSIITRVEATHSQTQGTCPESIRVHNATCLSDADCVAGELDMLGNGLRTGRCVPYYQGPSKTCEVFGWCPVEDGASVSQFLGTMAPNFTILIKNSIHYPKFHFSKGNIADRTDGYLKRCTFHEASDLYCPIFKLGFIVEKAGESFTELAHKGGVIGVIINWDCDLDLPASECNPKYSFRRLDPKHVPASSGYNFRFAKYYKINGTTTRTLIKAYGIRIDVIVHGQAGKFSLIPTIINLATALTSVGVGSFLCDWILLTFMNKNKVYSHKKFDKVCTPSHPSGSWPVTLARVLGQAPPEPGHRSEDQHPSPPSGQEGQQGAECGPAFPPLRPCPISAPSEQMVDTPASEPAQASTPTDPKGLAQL
Kind of experiment: Antagonist activity at human P2X2 receptor expressed in human 1321N1 cells assessed as inhibition of ATP-induced cytosolic calcium influx at 10 uM preincubated for 30 mins followed by ATP addition by Fluo-4 AM dye-based fluorescence assay relative to control. Format: cell-based.

Experiment [6] concerns the target T1, P2X purinoceptor 1 (Homo sapiens). Nature of the experiment: Antagonist activity P2X1 receptor in Apyrase pre-treated human platelets assessed as inhibition of TRAP6-induced platelet aggregation pre-incubated for 30 mins before TRAP6 stimulation by aggregometry relative to control. In kind it is cell-based.
Experiment [7] deals with P2X purinoceptor 1 (Homo sapiens, UniProt P51575). Nature of the experiment: (§1) Antagonist activity at non-desensitizing human P2X1 receptor ( P2X2/P2X1 chimera) expressed in human 1321N1 cells assessed as inhibition of ATP-induced calcium influx pre-incubated for 30 mins before ATP stimulation by FLIPR assay relative to control. In kind it is cell-based.
Experiment [8] addresses T4, P2X purinoceptor 1 (Rattus norvegicus, UniProt P47824).
T4 sequence (P47824 whole entry): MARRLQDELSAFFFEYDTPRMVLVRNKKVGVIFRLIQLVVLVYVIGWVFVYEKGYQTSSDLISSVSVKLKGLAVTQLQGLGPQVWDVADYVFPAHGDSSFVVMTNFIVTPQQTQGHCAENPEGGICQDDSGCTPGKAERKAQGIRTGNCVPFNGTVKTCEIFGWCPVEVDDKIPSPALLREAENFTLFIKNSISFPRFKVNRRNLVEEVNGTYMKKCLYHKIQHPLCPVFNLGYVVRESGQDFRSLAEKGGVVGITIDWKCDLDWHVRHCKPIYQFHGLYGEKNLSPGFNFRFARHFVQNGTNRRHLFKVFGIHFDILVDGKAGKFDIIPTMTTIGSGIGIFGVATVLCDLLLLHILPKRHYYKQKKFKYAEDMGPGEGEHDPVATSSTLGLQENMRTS
Nature of the experiment: Antagonist activity at rat P2X1 receptor.

Experiment [9] concerns the target T5, P2X purinoceptor 2 (Homo sapiens, UniProt Q9UBL9).
T5 sequence (Q9UBL9 whole entry): T3 sequence (whole entry)
Kind of experiment: Antagonist activity at human P2X2 receptor expressed in human 1321N1 cells assessed as inhibition of ATP-induced cytosolic calcium influx preincubated for 30 mins followed by ATP addition by Fluo-4 AM dye-based fluorescence assay. In kind it is cell-based.

Experiment [10] addresses T1, P2X purinoceptor 1 (Homo sapiens). Nature of the experiment: Negative allosteric modulator activity at non-desensitizing human P2X1 receptor ( P2X2/P2X1 chimera) expressed in human 1321N1 cells assessed as inhibition of maximal response for ATP-induced calcium influx at 100 to 500 nM pre-incubated for 30 mins before ATP stimulation by FLIPR assay relative to control. Format: cell-based.

For experiment [11], the target named is T6, P2X purinoceptor 7 (Homo sapiens, UniProt Q99572).
T6 sequence (Q99572 whole entry): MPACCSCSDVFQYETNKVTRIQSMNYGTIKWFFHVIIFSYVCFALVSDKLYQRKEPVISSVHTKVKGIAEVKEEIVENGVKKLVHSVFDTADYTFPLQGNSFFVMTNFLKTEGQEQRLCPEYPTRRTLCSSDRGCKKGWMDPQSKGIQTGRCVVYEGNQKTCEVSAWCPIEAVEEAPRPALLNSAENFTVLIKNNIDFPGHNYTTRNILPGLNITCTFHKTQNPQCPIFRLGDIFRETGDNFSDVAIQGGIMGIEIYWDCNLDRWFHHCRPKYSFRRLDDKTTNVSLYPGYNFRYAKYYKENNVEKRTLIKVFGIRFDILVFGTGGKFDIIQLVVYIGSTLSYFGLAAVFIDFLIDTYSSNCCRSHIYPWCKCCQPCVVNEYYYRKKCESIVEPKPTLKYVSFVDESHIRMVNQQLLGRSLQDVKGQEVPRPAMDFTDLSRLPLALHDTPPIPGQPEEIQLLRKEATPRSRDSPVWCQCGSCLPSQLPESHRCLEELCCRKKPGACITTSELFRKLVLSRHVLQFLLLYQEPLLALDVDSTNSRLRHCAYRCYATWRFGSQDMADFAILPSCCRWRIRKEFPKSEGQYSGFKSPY
Nature of the experiment: Antagonist activity at human P2X7 receptor expressed in human 1321N1 cells assessed as inhibition of ATP-induced cytosolic calcium influx preincubated for 30 mins followed by ATP addition by Fluo-4 AM dye-based fluorescence assay. Format: cell-based.

The target of experiment [12] is T7, P2X purinoceptor 3 (Homo sapiens, UniProt P56373).
T7 sequence (P56373 whole entry): T2 sequence (whole entry)
Kind of experiment: Antagonist activity at human P2X3 receptor expressed in human 1321N1 cells assessed as inhibition of ATP-induced cytosolic calcium influx preincubated for 30 mins followed by ATP addition by Fluo-4 AM dye-based fluorescence assay. Format: cell-based.

Experiment [13] has as its target T8, P2X purinoceptor 4 (Homo sapiens, UniProt Q99571).
T8 sequence (Q99571 whole entry): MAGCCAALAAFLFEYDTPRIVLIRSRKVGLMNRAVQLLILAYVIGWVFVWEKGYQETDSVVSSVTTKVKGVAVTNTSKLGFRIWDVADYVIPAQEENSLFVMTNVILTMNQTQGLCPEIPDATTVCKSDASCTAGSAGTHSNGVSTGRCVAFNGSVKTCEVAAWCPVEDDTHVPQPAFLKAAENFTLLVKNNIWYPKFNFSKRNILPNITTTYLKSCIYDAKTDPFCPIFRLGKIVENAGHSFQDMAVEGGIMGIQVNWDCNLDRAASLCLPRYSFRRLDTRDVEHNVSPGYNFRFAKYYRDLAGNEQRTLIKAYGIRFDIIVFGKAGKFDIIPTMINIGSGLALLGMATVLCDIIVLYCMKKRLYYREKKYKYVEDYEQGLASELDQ
Kind of experiment: Antagonist activity at human P2X4 receptor expressed in human 1321N1 cells assessed as inhibition of ATP-induced cytosolic calcium influx preincubated for 30 mins followed by ATP addition by Fluo-4 AM dye-based fluorescence assay. Format: cell-based.

For experiment [14], the target named is T9, P2X purinoceptor 4 (Homo sapiens) (UniProt Q99571).
T9 sequence (whole entry): T8 sequence (Q99571 whole entry)
Kind of experiment: Antagonist activity at human P2X4 receptor expressed in human 1321N1 cells assessed as inhibition of ATP-induced cytosolic calcium influx at 10 uM preincubated for 30 mins followed by ATP addition by Fluo-4 AM dye-based fluorescence assay relative to control. In kind it is cell-based.

The target of experiment [15] is T1, P2X purinoceptor 1 (Homo sapiens). The experiment is described as §1. In kind it is cell-based.
For experiment [16] the target is unchanged. Kind of experiment: Antagonist activity at non-desensitizing human P2X1 receptor ( P2X2/P2X1 chimera) expressed in human 1321N1 cells assessed as inhibition of ATP-induced calcium influx at 1 uM pre-incubated for 30 mins before ATP stimulation by FLIPR assay relative to control. In kind it is cell-based.

Each structure is given as a SMILES string. Active and inactive are the calls of the source. The calls are words filed in the database; no cut-off is given here. A value given as a limit tells only on which side of the number the result lay.

One may read the inhibition as the relative decrease from the control value, in per cent. Turning to `O=C(Nc1ccc(C(F)(F)F)cc1)c1cc(Cl)ccc1O`, the inhibition in [1] was 23%; in experiment [2] it was 7%; in experiment [3], -6%; in experiment [4], 53%; in experiment [5], 3%; in [6] it was 6%.

The IC50 is the concentration that inhibits the measured activity by half. In the case of `O=C(N[C@H](Cc1cscn1)C(=O)N[C@@H](CC1CCCCC1)[C@@H](O)[C@@H](O)C1CC1)c1nc2ccccc2[nH]1`, the results for the IC50 in [7] and in experiment [8] were 496 nM and 3000 nM, respectively. Besides, in [4], the inhibition is 100%.

Consider `O=C(Nc1cc(C(F)(F)F)cc(C(F)(F)F)c1)c1cccc(F)c1O`, for which the IC50 in [9] is greater than 10000 nM; in [7], 70.6 nM; in experiment [11] it was 857 nM; in [12], greater than 10000 nM; in experiment [13], no less than 10000 nM. Also, the inhibition turned out to be 38% in experiment [3], 80% in experiment [4] and 49% in experiment [14]. In addition, the inhibition entry in experiment [10] was “Active”.

Consider `Cc1nc(/N=N/c2ccc(S(=O)(=O)O)cc2S(=O)(=O)O)c(COP(=O)(O)O)c(C=O)c1O`, for which half-maximal inhibition in experiment [8] (IC50) required 1000 nM.

Turning to `O=C(Nc1cc(C(F)(F)F)cc(C(F)(F)F)c1)c1cc(Cl)ccc1O` [IMD-0354], the IC50 is greater than 10000 nM in [9]; 19.2 nM in experiment [7]; 175 nM in experiment [11]; greater than 10000 nM in experiment [12]; 156 nM in experiment [13]. Also, the inhibition in experiment [3] is 11%; in [15], “Dose-dependent effect”; in [4] it was greater than 75%; in [5], -7%; in experiment [16], greater than 40%. In addition, the inhibition entry in [10] was “Active”.

For the molecule `Cc1ccc(C(=O)Nc2ccc(S(=O)(=O)O)c3cc(S(=O)(=O)O)cc(S(=O)(=O)O)c23)cc1NC(=O)c1cccc(NC(=O)Nc2cccc(C(=O)Nc3cc(C(=O)Nc4ccc(S(=O)(=O)O)c5cc(S(=O)(=O)O)cc(S(=O)(=O)O)c45)ccc3C)c2)c1` [SURAMIN], the inhibition in experiment [4] was greater than 90%; in [16], greater than 40%. In experiment [8], this molecule displayed an IC50 of 1000 to 1700 nM.

For the molecule `O=C(Nc1cc(C(=O)Nc2ccc(S(=O)(=O)O)cc2S(=O)(=O)O)cc(C(=O)Nc2ccc(S(=O)(=O)O)cc2S(=O)(=O)O)c1)Nc1cc(C(=O)Nc2ccc(S(=O)(=O)O)cc2S(=O)(=O)O)cc(C(=O)Nc2ccc(S(=O)(=O)O)cc2S(=O)(=O)O)c1`, the inhibition in experiment [4] was found to be 100%. Moreover, half-maximal inhibition in experiment [8] (IC50) required 0.28 nM.

Turning to `O=C(Nc1cc(F)cc(F)c1)c1cc(Cl)ccc1O`, the inhibition in experiment [1] was determined as 14%; in experiment [2], 47%; in [3], 2%; in experiment [4], 62%; in experiment [5], 4%; in experiment [6] it was 5%. Besides, the IC50 in experiment [9] is greater than 10000 nM; in [7], 50.5 nM; in experiment [11] it was 160 nM; in [12] it was greater than 10000 nM; in experiment [13], 155 nM.

The record behind these values is ChEMBL document CHEMBL4613266, “Discovery and Structure Relationships of Salicylanilide Derivatives as Potent, Non-acidic P2X1 Receptor Antagonists” (J Med Chem, 2020).
